Measured values: patent US11384062B2 (CombiPhos Catalysts, Inc., priority 2017, dated 2022)
Each block holds one molecule with its values, some of them ahead of it.

Assay: Metabolic stability in pooled rat liver microsomes
Details: for CLint scaled at 0.5 µM: pH 7.4, Clint
Method: Buffer solutions were prepared as follows: • a. Buffer A: 0.1 M monobasic potassium phosphate buffer containing 1.0 mM EDTA. • b. Buffer B: 0.1 M dibasic potassium phosphate buffer containing 1.0 mM EDTA. • c. Buffer C: 0.1 M potassium phosphate buffer containing 1.0 mM EDTA was adjusted to pH 7.4 by titrating 700 mL of Buffer B with Buffer A while monitoring with a pH meter. • 2. An NADPH stock solution (6 mM) was prepared by dissolving NADPH into Buffer C. • 3. Spiking solutions were prepared for the reference compound (ketanserin) and the test compounds as follows: • a. A 500 μM spiking solution of the reference compound (ketanserin) was generated by adding 10 μL of a 10 mM stock solution of ketanserin in DMSO into 190 μL acetonitrile. A 1.5 μM spiking solution in microsomes (0.75 mg/mL) was generated by adding 1.5 μL of the 500 μM spiking solution and 18.75 μL of 20 mg/mL rat liver microsomes into 479.75 μL of Buffer C while cooling with ice. • b. […] A 0.75 μM spiking solution in microsomes (0.75 mg/mL) was generated by adding 1.5 μL of the 250 μM spiking solution and 18.75 μL of 20 mg/mL rat liver microsomes into 479.75 μL of Buffer C while cooling with ice. • 4. 30 μL of 1.5 μM spiking solution containing 0.75 mg/mL microsomes solution was dispensed into assay plates designated for different time points (0 min, 5 min, 15 min, 30 min, and 45 min; or 0 min, 15 min, 30 min, 45 min, and 60 min as shown in Tables 1-5 below) while cooling with ice. • 5. For the 0 min time point assay plate, 135 μL of ACN containing IS followed immediately by 15 μL of the 6 mM NADPH stock solution were added to the wells of the 0 min assay plate. • 6. All assay plates other than the 0 min assay plate were pre-incubated at 37° C. for 5 min, and then 15 μL of the 6 mM NADPH stock solution was added to the wells of the assay plates to start the reaction and timing. At the appropriate time (5 min, 15 min, 30 min, 45 min, or 60 min), 135 μL of ACN containing IS was added to the wells of the corresponding assay plates, respectively, to stop the reaction. • 7. After quenching, the plates were shaken in a vibrator (IKA, MTS 2/4) for 10 min (600 rpm/min) and then centrifuged at 5594 g for 15 min (Thermo Multifuge×3R). • 8. After centrifugation, 50 μL of the supernatant from each well was transferred into a 96-well sample plate containing 50 μL of ultrapure water (Millipore, ZMQS50F01) for LC/MS analysis.

[1] = rat liver microsomes, 0 min, Table 1 (Example 16)
[2] = rat liver microsomes, 0 min, Table 2 (Example 17)
[3] = rat liver microsomes, 0 min, Table 3 (Example 18)
[4] = rat liver microsomes, 0 min, Table 5 (Example 20)
[5] = rat liver microsomes, Table 2 (Example 17)
[6] = rat liver microsomes, 15 min, Table 1 (Example 16)
[7] = rat liver microsomes, 15 min, Table 2 (Example 17)
[8] = rat liver microsomes, 15 min, Table 3 (Example 18)
[9] = rat liver microsomes, 15 min, Table 5 (Example 20)
[10] = rat liver microsomes, 30 min, Table 1 (Example 16)
[11] = rat liver microsomes, 30 min, Table 2 (Example 17)
[12] = rat liver microsomes, 30 min, Table 3 (Example 18)
[13] = rat liver microsomes, 30 min, Table 5 (Example 20)
[14] = rat liver microsomes, 45 min, Table 1 (Example 16)
[15] = rat liver microsomes, 45 min, Table 2 (Example 17)
[16] = rat liver microsomes, 45 min, Table 3 (Example 18)
[17] = rat liver microsomes, 45 min, Table 5 (Example 20)
[18] = rat liver microsomes, Table 1 (Example 16)
[19] = rat liver microsomes, Table 3 (Example 18)
[20] = rat liver microsomes, Table 5 (Example 20)
[21] = rat, microsomes, 0 h, 0.5 µM, pH 7.4
[22] = rat, microsomes, 0.5 µM, pH 7.4
[23] = rat, microsomes, 0.25 h, 0.5 µM, pH 7.4
[24] = rat, microsomes, 0.5 h, 0.5 µM, pH 7.4
[25] = rat, microsomes, 0.75 h, 0.5 µM, pH 7.4
[26] = rat, microsomes, 1 h, 0.5 µM, pH 7.4

SMILES: NC(=O)c1cccc2cn(-c3ccc([C@@H]4CCCNC4)cc3)nc12 (racemic) [racemic niraparib]
Percent Remaining (%) 0 min [1]: 100.00% | Percent Remaining (%) 0 min [2]: 100% | Percent Remaining (%) 0 min [3]: 100.00% | Percent Remaining (%) 0 min [4]: 100.00% | Percent Remaining (%) 5 min [5]: 116.67% | Percent Remaining (%) 15 min [6]: 89.16% | Percent Remaining (%) 15 min [7]: 95.83% | Percent Remaining (%) 15 min [8]: 92.47% | Percent Remaining (%) 15 min [9]: 77.23% | Percent Remaining (%) 30 min [10]: 75.88% | Percent Remaining (%) 30 min [11]: 83.18% | Percent Remaining (%) 30 min [12]: 65.45% | Percent Remaining (%) 30 min [13]: 65.45% | Percent Remaining (%) 45 min [14]: 69.11% | Percent Remaining (%) 45 min [15]: 81.48% | Percent Remaining (%) 45 min [16]: 51.57% | Percent Remaining (%) 45 min [17]: 53.43% | Percent Remaining (%) 60 min (rat liver microsomes, 60 min, Table 1 (Example 16)): 60.43% | Percent Remaining (%) 60 min (rat liver microsomes, 60 min, Table 3 (Example 18)): 50.17% | Percent Remaining (%) 60 min (rat liver microsomes, 60 min, Table 5 (Example 20)): 42.23% | Clint [18]: 30.15 mL/min/kg | T1/2 [18]: 1.373 h | Clint [5]: 24.43 mL/min/kg | T1/2 [5]: 1.6945 h | Clint [19]: 46.91 mL/min/kg | T1/2 [19]: 0.8825 h | Clint [20]: 50.00 mL/min/kg | T1/2 [20]: 0.828 h

SMILES: [2H]c1c([2H])c(C2([2H])C([2H])([2H])NC([2H])([2H])C([2H])([2H])C2([2H])[2H])c([2H])c([2H])c1-n1cc2cccc(C(N)=O)c2n1 (centres unmarked) [Example 2, 2-(4-(piperidin-3-yl-2,2,3,4,4,5,5,6,6-d9)phenyl-2,3,5,6-d4)-2H-indazole-7-carboxamide]
Percent Remaining (%) 0 min [21]: 100.00% | Percent Remaining (%) 15 min [23]: 93.04% | Percent Remaining (%) 30 min [24]: 80.95% | Percent Remaining (%) 45 min [25]: 75.60% | Percent Remaining (%) 60 min [26]: 69.05% | CLint scaled at 0.5 µM (rat, microsomes): 22.7 mL/min/kg | half-life at 0.5 µM (rat, microsomes, pH 7.4, T1/2): 1.83 h

SMILES: [2H]c1c([2H])c(-n2nc3c(C(N)=O)cccc3c2[2H])c([2H])c([2H])c1[C@@H]1CCCNC1 [Example 15, (S)-2-(4-(piperidin-3-yl)phenyl-2,3,5,6-d4)-2H-indazole-3-d-7-carboxamide]
Percent Remaining (%) 0 min [21]: 100.00% | Percent Remaining (%) 15 min [23]: 77.88% | Percent Remaining (%) 30 min [24]: 67.35% | Percent Remaining (%) 45 min [25]: 56.14% | Percent Remaining (%) 60 min [26]: 44.60% | CLint scaled at 0.5 µM (rat, microsomes): 46.4 mL/min/kg | half-life at 0.5 µM (rat, microsomes, pH 7.4, T1/2): 0.892 h

SMILES: [2H]c1c([2H])c(-n2cc3cccc(C(N)=O)c3n2)c([2H])c([2H])c1C1CCCNC1 (centres unmarked) [Example 8, 2-(4-(piperidin-3-yl)phenyl-2,3,5,6-d4)-2H-indazole-7-carboxamide]
Percent Remaining (%) 0 min [21]: 100.00% | Percent Remaining (%) 15 min [23]: 91.49% | Percent Remaining (%) 30 min [24]: 79.13% | Percent Remaining (%) 45 min [25]: 80.74% | Percent Remaining (%) 60 min [26]: 56.02% | CLint scaled at 0.5 µM (rat, microsomes): 30.7 mL/min/kg | half-life at 0.5 µM (rat, microsomes, pH 7.4, T1/2): 1.35 h

SMILES: [2H]c1c([2H])c(C2([2H])CCCNC2[2H])c([2H])c([2H])c1-n1cc2cccc(C(N)=O)c2n1 (centres unmarked) [Example 9, 2-(4-(piperidin-3-yl-2,3-d2)phenyl-2,3,5,6-d4)-2H-indazole-7-carboxamide]
increase in rat liver microsome metabolic stability (rat, 0.5 µM, pH 7.4): 64% | Percent Remaining (%) 0 min [21]: 100.00% | Percent Remaining (%) 15 min [23]: 98.91% | Percent Remaining (%) 30 min [24]: 83.70% | Percent Remaining (%) 45 min [25]: 79.62% | Percent Remaining (%) 60 min [26]: 75.27% | CLint scaled at 0.5 µM (rat, microsomes): 18.8 mL/min/kg | half-life at 0.5 µM (rat, microsomes, pH 7.4, T1/2): 2.21 h

Results, then the molecule that gave them:

Percent Remaining (%) 0 min [21]: 100% | Percent Remaining (%) 5 min [22]: 112% | Percent Remaining (%) 15 min [23]: 100% | Percent Remaining (%) 30 min [24]: 88.27% | Percent Remaining (%) 45 min [25]: 85.02% | CLint scaled at 0.5 µM (rat, microsomes): 18.8 mL/min/kg | half-life at 0.5 µM (rat, microsomes, pH 7.4, T1/2): 2.2 h
SMILES: [2H]c1c([2H])c(-n2cc3cccc(C(N)=O)c3n2)c([2H])c([2H])c1C1C([2H])NC([2H])C([2H])C1[2H] (centres unmarked) [Example 6]

Percent Remaining (%) 0 min [21]: 100% | Percent Remaining (%) 5 min [22]: 112.62% | Percent Remaining (%) 15 min [23]: 94.47% | Percent Remaining (%) 30 min [24]: 84.9% | Percent Remaining (%) 45 min [25]: 83.06% | CLint scaled at 0.5 µM (rat, microsomes): 21.1 mL/min/kg | half-life at 0.5 µM (rat, microsomes, pH 7.4, T1/2): 1.96 h
SMILES: [2H]C1NC([2H])C(c2ccc(-n3cc4cccc(C(N)=O)c4n3)cc2)C([2H])C1[2H] (centres unmarked) [Example 7, 2-(4-(piperidin-3-yl-2,4,5,6-d4)phenyl)-2H-indazole-7-carboxamide]

Percent Remaining (%) 0 min [1]: 100.00% | Percent Remaining (%) 0 min [2]: 100% | Percent Remaining (%) 0 min [3]: 100.00% | Percent Remaining (%) 0 min (rat liver microsomes, 0 min, Table 4 (Example 19)): 100.00% | Percent Remaining (%) 0 min [4]: 100.00% | Percent Remaining (%) 5 min [18]: 65.84% | Percent Remaining (%) 5 min [5]: 94.13% | Percent Remaining (%) 5 min [19]: 78.33% | Percent Remaining (%) 5 min (rat liver microsomes, Table 4 (Example 19)): 78.33% | Percent Remaining (%) 5 min [20]: 82.83% | Percent Remaining (%) 15 min [6]: 41.07% | Percent Remaining (%) 15 min [7]: 61.07% | Percent Remaining (%) 15 min [8]: 45.04% | Percent Remaining (%) 15 min (rat liver microsomes, 15 min, Table 4 (Example 19)): 45.04% | Percent Remaining (%) 15 min [9]: 51.29% | Percent Remaining (%) 30 min [10]: 17.68% | Percent Remaining (%) 30 min [11]: 32.18% | Percent Remaining (%) 30 min [12]: 21.55% | Percent Remaining (%) 30 min (rat liver microsomes, 30 min, Table 4 (Example 19)): 21.55% | Percent Remaining (%) 30 min [13]: 25.82% | Percent Remaining (%) 45 min [14]: 9.13% | Percent Remaining (%) 45 min [15]: 21.24% | Percent Remaining (%) 45 min [16]: 10.67% | Percent Remaining (%) 45 min (rat liver microsomes, 45 min, Table 4 (Example 19)): 10.67% | Percent Remaining (%) 45 min [17]: 15.08% | CLint scaled at 0.5 µM (rat, pooled rat liver microsomes, rat liver microsomes, Table 1 (Example 16)): 188 mL/min/kg | CLint scaled at 0.5 µM (rat, pooled rat liver microsomes, rat liver microsomes, Table 2 (Example 17)): 142 mL/min/kg | CLint scaled at 0.5 µM (rat, pooled rat liver microsomes, rat liver microsomes, Table 3 (Example 18)): 179 mL/min/kg | CLint scaled at 0.5 µM (rat, pooled rat liver microsomes, rat liver microsomes, Table 4 (Example 19)): 179 mL/min/kg | CLint scaled at 0.5 µM (rat, pooled rat liver microsomes, rat liver microsomes, Table 5 (Example 20)): 154 mL/min/kg | half-life at 0.5 µM (rat, pooled rat liver microsomes, pH 7.4, T1/2, rat liver microsomes, Table 1 (Example 16)): 0.22 h | half-life at 0.5 µM (rat, pooled rat liver microsomes, pH 7.4, T1/2, rat liver microsomes, Table 2 (Example 17)): 0.292 h | half-life at 0.5 µM (rat, pooled rat liver microsomes, pH 7.4, T1/2, rat liver microsomes, Table 3 (Example 18)): 0.231 h | half-life at 0.5 µM (rat, pooled rat liver microsomes, pH 7.4, T1/2, rat liver microsomes, Table 4 (Example 19)): 0.231 h | half-life at 0.5 µM (rat, pooled rat liver microsomes, pH 7.4, T1/2, rat liver microsomes, Table 5 (Example 20)): 0.269 h
SMILES: O=C(c1ccc(F)cc1)C1CCN(CCn2c(=O)[nH]c3ccccc3c2=O)CC1 [ketanserin]

Percent Remaining (%) 0 min [21]: 100.00% | Percent Remaining (%) 15 min [23]: 108.00% | Percent Remaining (%) 30 min [24]: 89.02% | Percent Remaining (%) 45 min [25]: 81.33% | Percent Remaining (%) 60 min [26]: 80.31% | CLint scaled at 0.5 µM (rat, microsomes): 17.2 mL/min/kg | half-life at 0.5 µM (rat, microsomes, pH 7.4, T1/2): 2.4 h
SMILES: [2H]C1NC([2H])C([2H])(c2ccc(-n3cc4cccc(C(N)=O)c4n3)cc2)C([2H])C1[2H] (centres unmarked) [Example 5, 2-(4-(piperidin-3-yl-2,3,4,5,6-d5)phenyl)-2H-indazole-7-carboxamide]
